In brackets after ≈: the same amount, converted by molar mass.
Tests used:
Experiment in all cases: ≥ marks a high value that may be exact or a test limit, other limits are often not marked, values filed in µg/mL are converted to µM
[1] = tested on: Aspergillus awamori KCTC 6915
[2] = tested on: Aspergillus flavus KCTC 6905
[3] = tested on: Aspergillus fumigatus KCTC 6145
[4] = tested on: Aspergillus parasiticus KCTC 6598
[5] = tested on: Bacillus subtilis KCTC 1998
[6] = tested on: Candida albicans KCTC 7270
[7] = tested on: Escherichia coli ATCC 25922
[8] = tested on: Listeria monocytogenes KCTC 3710
[9] = tested on: Proteus vulgaris KCTC 2433
[10] = tested on: Pseudomonas aeruginosa ATCC 15692
[11] = tested on: Salmonella typhimurium KCTC 1926
[12] = tested on: Staphylococcus aureus ATCC 25923
[13] = tested on: Staphylococcus epidermidis ATCC 12228
[14] = tested on: Trichosporon beigelii KCTC 7707
[15] = tested on: Micrococcus luteus MTCC 106
[16] = tested on: Vibrio cholerae MTCC 3904
[17] = tested on: Batrachochytrium dendrobatidis JEL-197
[18] = tested on: Acinetobacter calcoaceticus
Candida albicans = tested on: Candida albicans
Pseudomonas aeruginosa = tested on: Pseudomonas aeruginosa
Staphylococcus aureus = tested on: Staphylococcus aureus
Streptococcus agalactiae = tested on: Streptococcus agalactiae
[19] = tested on: Xanthomonas axonopodis pv. glycines ISBF 327
[20] = tested on: Candida albicans ATCC 2002
[21] = tested on: Pseudomonas aeruginosa CMCCB 10104
[22] = tested on: Staphylococcus aureus ATCC 2592
[23] = tested on: Escherichia coli DH5alpha
Staphylococcus xylosus = tested on: Staphylococcus xylosus
[24] = tested on: Acinetobacter baumannii ATCC BAA-1794
[25] = tested on: Escherichia coli ATCC 51659
[26] = tested on: Pseudomonas aeruginosa PAO1
[27] = tested on: Staphylococcus aureus ATCC 33592
Escherichia coli DC2 = tested on: Escherichia coli DC2
Escherichia coli K-12 = tested on: Escherichia coli K-12
[28] = tested on: Staphylococcus aureus UAMS-1

Compound: CC[C@H](C)[C@H](NC(=O)[C@H](CCCCN)NC(=O)[C@H](CCCCN)NC(=O)[C@H](Cc1ccccc1)NC(=O)[C@H](CC(C)C)NC(=O)[C@H](CCCCN)NC(=O)[C@H](CCCCN)NC(=O)[C@H](CC(C)C)NC(=O)[C@H](CCCN=C(N)N)NC(=O)[C@H](CCCCN)NC(=O)[C@H](C)N)C(=O)N[C@@H](Cc1c[nH]c2ccccc12)C(=O)N[C@@H](CC(N)=O)C(=O)N[C@@H](Cc1c[nH]c2ccccc12)C(=O)N[C@@H](CCCCN)C(N)=O [AKRLKKLFKKIWNWK]
- MIC [1]: 16 µM (≈ 31.8 µg/mL)
- MIC [2]: 16 µM (≈ 31.8 µg/mL)
- MIC [3]: 8 µM (≈ 15.9 µg/mL)
- MIC [4]: 8 µM (≈ 15.9 µg/mL)
- MIC [5]: 2 µM (≈ 3.97 µg/mL)
- MIC [6]: 8 µM (≈ 15.9 µg/mL)
- MIC [7]: 4 µM (≈ 7.95 µg/mL)
- MIC [8]: 2 µM (≈ 3.97 µg/mL)
- MIC [9]: 4 µM (≈ 7.95 µg/mL)
- MIC [10]: 1 µM (≈ 1.99 µg/mL)
- MIC [11]: 1 µM (≈ 1.99 µg/mL)
- MIC [12]: 2 µM (≈ 3.97 µg/mL)
- MIC [13]: 2.83 µM (≈ 5.62 µg/mL)
- MIC [14]: 16 µM (≈ 31.8 µg/mL)

Compound: CC(C)C[C@H](NC(=O)[C@H](Cc1cnc[nH]1)NC(=O)[C@@H](NC(=O)[C@H](CC(C)C)NC(=O)[C@@H]1CSSC[C@H](NC(=O)[C@H](CO)NC(=O)[C@H](Cc2ccccc2)NC(=O)[C@@H]2CCCN2C(=O)[C@@H](NC(=O)[C@@H]2CCCN2C(=O)[C@H](C)N)C(C)C)C(=O)N[C@@H]([C@@H](C)O)C(=O)N[C@@H](CCCN=C(N)N)C(=O)NCC(=O)N1)[C@@H](C)O)C(=O)N[C@H](C(=O)O)C(C)C [APVPFSCTRGCLTHLV]
- MIC [15]: 6.3 µM (≈ 10.7 µg/mL)
- MIC [16]: 25.4 µM (≈ 43.2 µg/mL)

Compound: CC[C@H](C)[C@H](NC(=O)[C@H](CCCCN)NC(=O)[C@H](CCCCN)NC(=O)[C@H](CC(C)C)NC(=O)[C@@H](NC(=O)[C@H](CCC(N)=O)NC(=O)CNC(=O)[C@H](C)NC(=O)[C@@H](NC(=O)CNC(=O)[C@H](C)NC(=O)[C@@H](NC(=O)[C@@H](NC(=O)[C@@H]1CCCN1C(=O)[C@H](Cc1ccccc1)NC(=O)[C@@H](N)Cc1ccccc1)[C@@H](C)CC)C(C)C)C(C)C)C(C)C)C(=O)N[C@@H](Cc1ccc(O)cc1)C(=O)N[C@H]1CSSC[C@@H](C(=O)O)NC(=O)[C@H](CCCCN)NC(=O)[C@H](CCCCN)NC(=O)[C@H](CO)NC(=O)[C@H]([C@@H](C)CC)NC(=O)[C@H]([C@@H](C)O)NC1=O [FFPIVAGVAGQVLKKIYCTISKKC]
- MIC [17]: 20 µM (≈ 52.2 µg/mL)
- MIC [7]: 14 µM (≈ 36.6 µg/mL)

Compound: CC[C@H](C)[C@H](NC(=O)[C@H](C)NC(=O)[C@H](Cc1cnc[nH]1)NC(=O)[C@@H]1CCCN1C(=O)[C@@H](NC(=O)[C@H](CC(C)C)NC(=O)[C@H](CO)NC(=O)[C@H](CC(C)C)NC(=O)[C@@H](N)Cc1ccccc1)[C@@H](C)CC)C(=O)N[C@@H](CC(N)=O)C(=O)N[C@@H](C)C(=O)N[C@H](C(=O)N[C@@H](CO)C(=O)N[C@H](C(=O)N[C@@H](CC(C)C)C(=O)N[C@H](C(=O)N[C@@H](Cc1cnc[nH]1)C(=O)N[C@@H](Cc1cnc[nH]1)C(=O)N[C@@H](Cc1ccccc1)C(N)=O)C(C)C)[C@@H](C)O)C(C)C [FLSLIPHAINAVSTLVHHF]
- MIC [18]: 3.7 µM (≈ 7.83 µg/mL)
- MIC (Candida albicans): 15.1 µM (≈ 31.9 µg/mL)
- MIC [7]: 15 µM (≈ 31.7 µg/mL)
- MIC (Pseudomonas aeruginosa): 60.4 µM (≈ 128 µg/mL)
- MIC (Staphylococcus aureus): 7.6 µM (≈ 16.1 µg/mL)
- MIC (Streptococcus agalactiae): 1.9 µM (≈ 4.02 µg/mL)
- MIC [19]: ≥ 121 µM

Compound: CC[C@H](C)[C@H](N)C(=O)N[C@@H](CC(C)C)C(=O)NCC(=O)N1CCC[C@H]1C(=O)N[C@H](C(=O)N[C@@H](CC(C)C)C(=O)NCC(=O)N[C@@H](CC(C)C)C(=O)N[C@H](C(=O)NCC(=O)N[C@@H](CC(N)=O)C(=O)N[C@@H](C)C(=O)N[C@@H](CC(C)C)C(=O)NCC(=O)NCC(=O)N[C@@H](CC(C)C)C(=O)N[C@H](C(=O)N[C@@H](CCCCN)C(=O)N[C@@H](CCCCN)C(=O)N[C@H](C(N)=O)[C@@H](C)CC)[C@@H](C)CC)C(C)C)C(C)C [ILGPVLGLVGNALGGLIKKI]
- MIC [20]: 2.57 µM (≈ 5 µg/mL)
- MIC [7]: 10.3 µM (≈ 20 µg/mL)
- MIC [21]: 10.3 µM (≈ 20 µg/mL)
- MIC [22]: 5.14 µM (≈ 10 µg/mL)

Compound: CC[C@H](C)[C@H](NC(=O)[C@H](CCCCN)NC(=O)[C@H](CCCCN)NC(=O)[C@@H](N)CCCCN)C(=O)N[C@H](C(=O)N[C@H](C(=O)N[C@H](C(=O)N[C@H](C(=O)N[C@H](C(=O)N[C@@H](CCCCN)C(=O)N[C@@H](CCCCN)C(=O)N[C@@H](CCCCN)C(=O)O)[C@@H](C)CC)[C@@H](C)CC)[C@@H](C)CC)[C@@H](C)CC)[C@@H](C)CC [KKKIIIIIIKKK]
- MIC [23]: 8 µM (≈ 11.7 µg/mL)
- MIC (Staphylococcus xylosus): 0.5 µM (≈ 0.733 µg/mL)

Compound: CC(C)C[C@H](NC(=O)[C@H](CCCCN)NC(=O)[C@H](CCC(=O)O)NC(=O)[C@H](CCCCN)NC(=O)[C@@H](NC(=O)[C@H](CCCCN)NC(=O)[C@H](CCCCN)NC(=O)[C@H](Cc1ccccc1)NC(=O)[C@H](Cc1cnc[nH]1)NC(=O)[C@H](CCC(=O)O)NC(=O)[C@H](CO)NC(=O)[C@H](Cc1ccccc1)NC(=O)[C@H](Cc1c[nH]c2ccccc12)NC(=O)[C@H](CC(N)=O)NC(=O)[C@H](CCCN=C(N)N)NC(=O)[C@@H](NC(=O)[C@@H](N)CCCCN)[C@@H](C)O)C(C)C)C(=O)N[C@@H](CCCCN)C(=O)N[C@@H](CC(=O)O)C(=O)N[C@H](C(=O)N[C@@H](Cc1ccccc1)C(=O)N[C@@H](C)C(=O)O)[C@@H](C)O [KTRNWFSEHFKKVKEKLKDTFA]
- MIC [24]: ≥ 90.3 µM
- MIC [25]: ≥ 90.3 µM
- MIC [26]: > 90.3 µM
- MIC [27]: ≥ 90.3 µM

Compound: CC[C@H](C)[C@H](NC(=O)[C@H](CCCCN)NC(=O)[C@H](CCC(=O)O)NC(=O)[C@H](CCCCN)NC(=O)[C@H](CO)NC(=O)[C@H](CCCCN)NC(=O)[C@H](CCCN=C(N)N)NC(=O)[C@H](Cc1ccccc1)NC(=O)[C@H](Cc1ccccc1)NC(=O)[C@H](CC(=O)O)NC(=O)CNC(=O)[C@H](CC(C)C)NC(=O)[C@@H](N)CC(C)C)C(=O)NCC(=O)N[C@@H](CCCCN)C(=O)N[C@@H](CCC(=O)O)C(=O)N[C@@H](Cc1ccccc1)C(=O)N[C@@H](CCCCN)C(=O)N[C@@H](CCCN=C(N)N)C(=O)N[C@H](C(=O)N[C@H](C(=O)N[C@@H](CCC(N)=O)C(=O)N[C@@H](CCCN=C(N)N)C(=O)O)C(C)C)[C@@H](C)CC [LLGDFFRKSKEKIGKEFKRIVQR]
- MIC (Escherichia coli DC2): 9 µM (≈ 25.4 µg/mL)
- MIC (Escherichia coli K-12): ≥ 160 µM
- MIC [28]: ≥ 160 µM
- MIC (Staphylococcus aureus): > 24 µM

Reference: DBAASP
